# Assay results published in US9546401B2, “Assays and methods for selecting a treatment regimen for a subject with depression” (The General Hospital Corporation, priority 2011, dated 2017).
# Like-named read-outs stand apart in the source and are kept apart here.
# Tested on: MDD patients carrying the indicated biomarkers
# Method: Folate levels are classified as either low (<=2.5 ng/ml) or normal; and homocysteine levels as either normal or elevated (>=[…]). The presence or absence of at least one […] allele for the MTHFR gene are entered as a dichotomous variable (present or absent). […] Using folate as an example predicator, the presence or absence of a low serum-folate level along with treatment assignment can be entered in a 2×2, factorial ANOVA, using depression improvement scores (baseline minus endpoint HAM-D-17 scores) as the dependant variable. […] Similar analyses (i.e. separate 2×2 ANOVA's) can be performed substituting the presence of low folate levels for the presence of other predictors as described herein. Similarly, the effect of other predictors can be indicated by the interaction term representing the potential modulating influence of those variables.
# The efficacy effect is determined by measuring the mean change in the HAMD-17 score and HAMD-28 score by the end of Phase I and Phase II, as compared to the baseline.
# [1] = Phase II, BMI < 30 kg/m^2 and HNE-His < median
# [2] = Phase II, BMI < 30 kg/m^2 and SAM/SAH >= median
# [3] = Phase II, BMI >= 30 kg/m^2 and HNE-His >= median
# [4] = Phase II, BMI*treat (interaction of BMI with the treatment)
# [5] = Phase II, MTHFR 677 CC and BMI < 30 kg/m^2
# [6] = Phase II, MTHFR 677 CT or TT and BMI >= 30 kg/m^2
# [7] = Phase II, MTHFR 677 CT or TT and HNE-His >= median
# [8] = Phase II, MTR 2756 AA and BMI < 30 kg/m^2
# [9] = Phase II, MTR 2756 AA and HNE-His < median
# [10] = Phase II, MTR 2756 AA and MTRR 66 AA
# [11] = Phase II, MTR 2756 AA and MTRR 66 AA and SAM/SAH >= median
# [12] = Phase II, MTR 2756 AA and SAM/SAH >= median
# [13] = Phase II, MTR 2756 AG or GG and BMI >= 30 kg/m^2
# [14] = Phase II, MTR 2756 AG or GG and MTRR 66 AG or GG
# [15] = Phase II, MTR 2756 AG or GG and MTRR 66 AG or GG and HNE-His >= median
# [16] = Phase II, MTRR 66 AA and SAM/SAH >= median
# [17] = Phase II, MTRR 66 AG or GG and HNE-His >= median
# [18] = Phase II, SAM/SAH < median and HNE-His >= median
# [19] = Phase II, SAM/SAH >= median and HNE-His < median
# [20] = Pooled phases, 25 =< BMI < 30 kg/m^2
smiles,measurement,setting,value
"CN1c2c(nc(N)[nH]c2=O)NC[C@@H]1CNc1ccc(C(=O)N[C@@H](CCC(=O)O)C(=O)O)cc1 [6(S)-5-MTHF, 6(S)-5-methyltetrahydrofolate]",Effect on change in HAMD-28 score,"Phase II, BMI < 25",−2.300
same,Effect on change in HAMD-17 score,[1],3.667
same,Effect on change in HAMD-28 score,[1],1.833
same,Effect on change in HAMD-17 score,[2],1.500
same,Effect on change in HAMD-28 score,[2],2.500
same,Effect on change in HAMD-17 score,"Phase II, BMI >= 30 kg/m^2",−3.009
same,Effect on change in HAMD-28 score,"Phase II, BMI >= 30 kg/m^2",−3.245
same,Effect on change in HAMD-17 score,[3],−4.233
same,Effect on change in HAMD-28 score,[3],−4.933
same,Effect on change in HAMD-17 score,"Phase II, BMI >= 30 kg/m^2 and SAM/SAH < median",−9.200
same,Effect on change in HAMD-28 score,"Phase II, BMI >= 30 kg/m^2 and SAM/SAH < median = 2.71 (plasma)",−10.350
same,Effect on change in HAMD-17 score,[4],0.113
same,Effect on change in HAMD-28 score,[4],0.082
same,Effect on change in HAMD-17 score,[5],−2.267
same,Effect on change in HAMD-28 score,[5],−3.000
same,Effect on change in HAMD-17 score,"Phase II, MTHFR 677 CC and HNE-His < median",−0.857
same,Effect on change in HAMD-28 score,"Phase II, MTHFR 677 CC and HNE-His < median = 3.28 (plasma)",−0.536
same,Effect on change in HAMD-17 score,[6],−7.333
same,Effect on change in HAMD-28 score,[6],−8.667
same,Effect on change in HAMD-17 score,[7],−7.500
same,Effect on change in HAMD-28 score,[7],−7.500
same,Effect on change in HAMD-17 score,"Phase II, MTR 2756 AA",−0.427
same,Effect on change in HAMD-28 score,"Phase II, MTR 2756 AA",−0.446
same,Effect on change in HAMD-17 score,[8],1.167
same,Effect on change in HAMD-28 score,[8],0.917
same,Effect on change in HAMD-17 score,[9],0.300
same,Effect on change in HAMD-28 score,[9],−0.125
same,Effect on change in HAMD-17 score,[10],−8.000
same,Effect on change in HAMD-28 score,[10],−8.000
same,Effect on change in HAMD-17 score,"Phase II, MTR 2756 AA and MTRR 66 AA and HNE-His < median",−8.667
same,Effect on change in HAMD-28 score,"Phase II, MTR 2756 AA and MTRR 66 AA and HNE-His < median = 3.28 (plasma)",−9.000
same,Effect on change in HAMD-17 score,[11],−7.000
same,Effect on change in HAMD-28 score,[11],−7.500
same,Effect on change in HAMD-17 score,[12],1.971
same,Effect on change in HAMD-28 score,[12],2.000
same,Effect on change in HAMD-17 score,[13],−12.167
same,Effect on change in HAMD-28 score,[13],−13.000
same,Effect on change in HAMD-17 score,"Phase II, MTR 2756 AG or GG and HNE-His >= median",−8.417
same,Effect on change in HAMD-28 score,"Phase II, MTR 2756 AG or GG and HNE-His >= median = 3.28 (plasma)",−9.500
same,Effect on change in HAMD-17 score,[14],−4.667
same,Effect on change in HAMD-28 score,[14],−6.583
same,Effect on change in HAMD-17 score,[15],−11.000
same,Effect on change in HAMD-28 score,[15],−12.000
same,Effect on change in HAMD-17 score,"Phase II, MTR 2756 AG or GG and MTRR 66 AG or GG and SAM/SAH < median",−6.500
same,Effect on change in HAMD-28 score,"Phase II, MTR 2756 AG or GG and MTRR 66 AG or GG and SAM/SAH < median = 2.71 (plasma)",−10.500
same,Effect on change in HAMD-17 score,"Phase II, MTR 2756 AG or GG and SAM/SAH < median",−2.500
same,Effect on change in HAMD-28 score,"Phase II, MTR 2756 AG or GG and SAM/SAH < median = 2.71 (plasma)",−7.500
same,Effect on change in HAMD-17 score,"Phase II, MTR 2756 AG/GG",−3.600
same,Effect on change in HAMD-28 score,"Phase II, MTR 2756 AG/GG",−5.300
same,Effect on change in HAMD-17 score,"Phase II, MTRR 66 AA and HNE-His < median",−1.667
same,Effect on change in HAMD-28 score,"Phase II, MTRR 66 AA and HNE-His < median = 3.28 (plasma)",−2.000
same,Effect on change in HAMD-17 score,[16],−3.000
same,Effect on change in HAMD-28 score,[16],−3.333
same,Effect on change in HAMD-17 score,[17],−3.500
same,Effect on change in HAMD-28 score,[17],−4.071
same,Effect on change in HAMD-17 score,"Phase II, MTRR 66 AG or GG and SAM/SAH < median",−6.190
same,Effect on change in HAMD-28 score,"Phase II, MTRR 66 AG or GG and SAM/SAH < median = 2.71 (plasma)",−7.381
same,Effect on change in HAMD-17 score,[18],−9.000
same,Effect on change in HAMD-28 score,[18],−12.000
same,Effect on change in HAMD-17 score,[19],4.000
same,Effect on change in HAMD-28 score,[19],4.500
same,Effect on change in HAMD-28 score,"Phase II, SAM/SAH*treat, first line under HAMD28",1.483
same,Effect on change in HAMD-17 score,"Phase II, baseHAMD-17*treat (interaction of base HAMD-17 with the treatment)",−0.249
same,Effect on change in HAMD-17 score,[20],3.331
same,Effect on change in HAMD-28 score,[20],2.054
same,Effect on change in HAMD-17 score,"Pooled phases, BMI < 25",−1.248
